Laboratory results reported in patent US9107404B2, “Method for reducing undesirable effects on turfgrass” (Ishihara Sangyo Kaisha, Ltd., priority 2010, dated 2015).

How the values were obtained:
[1] = system: bentgrass (breed: penncross); test: Example 6: bentgrass rubbed against mascarenegrass treated with asulam plus surfactant; conditions: in vivo
Procedure: Soil was put into a 1/300,000 ha pot, and mascarenegrass were cultivated. Further, soil was put into a 1/1,000,000 ha pot, and bentgrass (breed: penncross) was cultivated. A predetermined amount (asulam: 4625 g a.i./ha) of a treating liquid containing asulam as an active component (tradename: Arsilan liquid preparation, manufactured by Ishihara Sangyo Kaisha, Ltd.) was diluted with water containing a predetermined amount of Maku-pika (tradename, the same as in Example 1), and applied by foliar treatment to the mascarenegrass by a small spraygun so that the amount of the treating liquid corresponds to 2,000 L/ha. Upon expiration of 6 hours after the treatment, the bentgrass not treated with asulam was rubbed against the mascarenegrass treated therewith (the pot of bentgrass was permitted to slide and reciprocate once).
(§1) On 12th day after the treatment with asulam, the state of growth of the bentgrass was evaluated in the same manner as in Example 3, and the growth inhibition rate and the degree of discoloring are shown in Table 9. Further, as comparative areas, an area wherein Kusa-rino (tradename, the same as in Example 1) was used, and an area wherein no surfactant was used, were provided.

[2] = system: bentgrass (breed: penncross); test: Example 2: tester walked on flazasulfuron-treated Japanese lawngrass, then stepped on bentgrass; conditions: in vivo, 21 day
Procedure: Japanese lawngrass was cultivated on ground in 0.6 m^2 (0.4 m×1.5 m). Further, soil was put into a 1/300,000 ha pot, and bentgrass (breed: penncross) was cultivated. A predetermined amount (flazasulfuron: 50 g a.i./ha) of SHIBAGEN DF (tradename, the same as in Example 1) was diluted with water containing a predetermined amount of Maku-pika (tradename, the same as in Example 1) and applied by foliar treatment to the Japanese lawngrass by a small spraygun so that the amount of the treating liquid corresponds to 2,000 L/ha. Immediately after the treatment or upon expiration of 3 hours after the treatment, a tester walked (5 steps) on the Japanese lawngrass treated with flazasulfuron and then stepped on the bentgrass.
as §1, with “21st” for “12th”, “after” for “after the”, “flazasulfuron,” for “asulam,”, “1,” for “3,”, “is” for “and the degree of discoloring are”, “Tables 3 and 4.” for “Table 9.”

[3] = system: bentgrass (breed: penncross); test: Example 10: bentgrass rubbed against mascarenegrass treated with flazasulfuron plus surfactant (Breakthru); conditions: in vivo
Procedure: (§2) Soil was put into a 1/300,000 ha pot, and mascarenegrass was cultivated. Further, soil was put into a 1/1,000,000 ha pot, and bentgrass (breed: penncross) was cultivated. A predetermined amount (flazasulfuron: 50 g a.i./ha) of SHIBAGEN DF (tradename, the same as in Example 1) was diluted with water containing a predetermined amount of a silicone surfactant (tradename: Breakthru, manufactured by Sankei Chemical Co., Ltd.) and applied by foliar treatment to the mascarenegrass by a small spraygun, so that the amount of the treating liquid corresponds to 2,000 L/ha. Upon expiration of 6 hours after the treatment, the bentgrass not treated with flazasulfuron, was rubbed against the mascarenegrass treated therewith (the pot of bentgrass was permitted to slide and reciprocate once).
as §1, with “21st” for “12th”, “flazasulfuron,” for “asulam,”, “13.” for “9.”

[4] = system: bentgrass (breed: Minakuru); test: Example 4: field test, tester walked on flazasulfuron-treated mascarenegrass, then stepped on bentgrass; conditions: in vivo
Procedure: On ground, mascarenegrass in 50 m^2 (2 m×25 m) and bentgrass (breed: Minakuru) in 0.12 m^2 (0.35 m×0.35 m) were respectively cultivated. A predetermined amount (flazasulfuron: 100 g a.i./ha) of a wettable powder containing flazasulfuron as an active ingredient (tradename: SHIBAGEN WP, manufactured by Ishihara Sangyo Kaisha, Ltd.) was diluted with water containing a predetermined amount of a silicone surfactant (tradename: Silwet L-77, manufactured by Witco) and applied by foliar treatment to the mascarenegrass by a knapsack power sprayer so that the amount of the treating liquid corresponds to 2,000 L/ha. After the treating liquid dried, a tester walked (100 m) on the mascarenegrass treated with flazasulfuron, then walked (10 m) on mascarenegrass not treated with flazasulfuron and then stepped on five times on the bentgrass.
as §1, with “11th” for “12th”, “flazasulfuron,” for “asulam,”, “7.” for “9.”

[5] = system: bentgrass (breed: penncross); test: Example 1: bentgrass pot rubbed against mascarenegrass treated with flazasulfuron plus surfactant; conditions: in vivo
Procedure: Soil was put into a 1/300,000 ha pot, and mascarenegrass was cultivated. Further, soil was put into a 1/1,000,000 ha pot, and bentgrass (breed: penncross) was cultivated. A predetermined amount (flazasulfuron: 50 g a.i./ha) of water dispersible granules (tradename: SHIBAGEN DF, manufactured by Ishihara Sangyo Kaisha, Ltd.) containing flazasulfuron as an active ingredient, was diluted with water containing a predetermined amount of a silicone surfactant (tradename: Maku-pika, manufactured by Ishihara Sangyo Kaisha, Ltd.) and applied by foliar treatment to the mascarenegrass by a small spraygun so that the amount of the treating liquid corresponds to 2,000 L/ha. Immediately after the treatment or upon expiration of 6 hours after the treatment, the bentgrass not treated with flazasulfuron was rubbed against the mascarenegrass treated with flazasulfuron (the pot of bentgrass was permitted to slide and reciprocate once).
On 14th day after the treatment with flazasulfuron, the state of growth of the bentgrass was visually observed and investigated, and the growth inhibition rate and the degree of necrosis evaluated in accordance with the following standards are shown in Tables 1 and 2. […]

[6] = system: bentgrass (breed: penncross); test: Example 7: bentgrass rubbed against mascarenegrass treated with rimsulfuron plus surfactant; conditions: in vivo
Procedure: as §2, with “(rimsulfuron: 35.25” for “(flazasulfuron: 50”, “water dispersible granules containing rimsulfuron” for “SHIBAGEN DF (tradename, the same”, “an active ingredient (tradename: Hurley DF, manufactured by MARUWA Biochemical Co., Ltd.)” for “in Example 1)”, “Maku-pika (tradename, the same as in Example 1)” for “a silicone surfactant (tradename: Breakthru, manufactured by Sankei Chemical Co., Ltd.)”, “rimsulfuron” for “flazasulfuron,”
as §1, with “13th” for “12th”, “rimsulfuron,” for “asulam,”, “10.” for “9.”, “1) or Surfactant WK (tradename, manufactured by MARUWA Biochemical Co., Ltd.)” for “1)”

[7] = system: bentgrass (breed: penncross); test: Example 5: bentgrass rubbed against mascarenegrass treated with trifloxysulfuron sodium salt plus surfactant; assay type: in vivo; conditions: trifloxysulfuron sodium salt 45 g a.i./ha, spreading agent not added, rubbed 6 hours after treatment, 12th day
Procedure: Soil was put into a 1/300,000 ha pot, and mascarenegrass was cultivated. Further, soil was put into a 1/1,000,000 ha pot, and bentgrass (breed: penncross) was cultivated. A predetermined amount (trifloxysulfuron sodium salt: 45 g a.i./ha) of water dispersible granules containing trifloxysulfuron sodium salt as an active ingredient (tradename: Monument water dispersible granules, manufactured by Syngenta Japan K.K.) was diluted with water containing a predetermined amount of Maku-pika (tradename, the same as in Example 1) and applied by foliar treatment to the mascarenegrass by a small spraygun, so that the amount of the treating liquid corresponds to 2,000 L/ha. Upon expiration of 6 hours after the treatment, the bentgrass not treated with trifloxysulfuron sodium salt, was rubbed against the mascarenegrass treated therewith (the pot of bentgrass was permitted to slide and reciprocate once).
as §1, with “trifloxysulfuron sodium salt,” for “asulam,”, “8.” for “9.”

SMILES: COC(=O)NS(=O)(=O)c1ccc(N)cc1 [asulam]
- Bentgrass Discoloring [1]: 2.5
- Bentgrass Growth inhibition rate ([1]; penncross, bentgrass, 12 day): 45%

SMILES: COc1cc(OC)nc(NC(=O)NS(=O)(=O)c2ncccc2C(F)(F)F)n1 [flazasulfuron]
- Bentgrass Growth inhibition rate (%) [2]: 30%
- Bentgrass Discoloring [3]: 0.5
- Bentgrass Growth inhibition rate ([3]; penncross, bentgrass, 21 day): 57%
- Bentgrass Growth inhibition rate (%) ([4]; Minakuru, bentgrass, 11 day): 28%
- Bentgrass Discoloring [4]: 1.0
- Bentgrass Necrosis [5]: 0.8
- Bentgrass Growth inhibition rate (%) ([5]; penncross, bentgrass, 14 day): 48%

SMILES: CCS(=O)(=O)c1cccnc1S(=O)(=O)NC(=O)Nc1nc(OC)cc(OC)n1 [rimsulfuron]
- Bentgrass Discoloring [6]: 1.0
- Bentgrass Growth inhibition rate ([6]; penncross, bentgrass, 13 day): 35%

SMILES: COc1cc(OC)nc(NC(=O)[N-]S(=O)(=O)c2ncccc2OCC(F)(F)F)n1.[Na+] [trifloxysulfuron sodium salt]
- Bentgrass Growth inhibition rate [7]: 60%
- Bentgrass Discoloring ([7]; degree 0-5.0): 1.5
